Values of other authors in US20100112083A1, “PHARMACEUTICAL PRODUCT FOR MODULATING BONE FORMATION, PROCESS FOR MODULATING BONE FORMATION” (priority 2007, published 2010).

Test system: mesenchymal stem cells
Settings: by activating sirtuin protein Sirt1

**Q.** For Oc1ccc(/C=C/c2cc(O)cc(O)c2)cc1 [trans-resveratrol], which “differentiation of mesenchymal stem cells into osteoblasts” value is on record?
**A.** Its value is “promoted the selective differentiation”.
